Reference: patent EP2818472A1, “Imidazo[4,5-c]pyridine and pyrrolo[3,2-c]pyridine compounds as G-protein-coupled receptor kinase 5 (GRK5) modulators” (Max-Planck-Gesellschaft zur Förderung der Wissenschaften …, priority 2013, dated 2014)

system: beta-TC6 cells; assay: Insulin HTRF assay (relative activity Ar) in beta-TC6 cells; type: cell-based, mouse; conditions: Mus musculus, Beta-TC6, 4 h, insulin HTRF, supernatant of beta-TC6 cells, incubation with test compound at 37°C for 2, 3, 4h; read-out: Ar (relative activity)
Summary of the method: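 beta-TC6 cells (15k/well, seeded 24 or 48 h) washed, then exposed to compound in induction buffer (0.5% DMSO final) for 2, 3 or 4 h at 37°C.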

SMILES	Emax [%]
COc1cccc(-c2nc3c(Nc4cc(OC)c(OC)c(OC)c4)nccc3[nH]2)c1F [Compound 467, 2-(2-fluoro-3-methoxy-phenyl)-N-(3,4,5-trimethoxyphenyl)-1H-imidazo[4,5-c]pyridin-4-amine]	> 100
COc1cccc(Nc2cc3[nH]c(-c4cn[nH]c4)cc3cn2)c1 [Compound 110, N-(3-methoxyphenyl)-2-(1H-pyrazol-4-yl)-1H-pyrrolo[3,2-c]pyridin-6-amine]	> 100
Cn1c(-c2cccnc2)cc2cnc(Nc3ccccc3)cc21 [Compound 88, 1-methyl-N-phenyl-2-(3-pyridyl)pyrrolo[3,2-c]pyridin-6-amine]	30 to 50
COCCCNc1nccc2[nH]c(-c3ccccc3)nc12 [Compound 340, N-(3-methoxypropyl)-2-phenyl-1H-imidazo[4,5-c]pyridin-4-amine]	30 to 50
Cc1cccc(-c2nc3c(Nc4cccc(NS(C)(=O)=O)c4)nccc3[nH]2)c1 [Compound 439, N-[3-[[2-(m-tolyl)-1H-imidazo[4,5-c]pyridin-4-yl]amino]phenyl]methanesulfonamide]	30 to 50
CNc1nc2cnc(-c3cccc4ccccc34)cc2n1-c1cccc(F)c1 [Compound 884, 1-(3-fluorophenyl)-N-methyl-6-(1-naphthyl)imidazo[4,5-c]pyridin-2-amine]	30 to 50
CNc1nc2cnc(-c3cccc(N(C)C)c3)cc2n1-c1cccc(F)c1 [Compound 683, 6-[3-(dimethylamino)phenyl]-1-(3-fluorophenyl)-N-methyl-imidazo[4,5-c]pyridin-2-amine]	30 to 50
Cn1cc(-c2cc3cnc(N4CCOCC4)cc3n2C)cn1 [Compound 145, 4-[1-methyl-2-(1-methylpyrazol-4-yl)pyrrolo[3,2-c]pyridin-6-yl]morpholine]	> 100
COC(=O)c1ccc(Nc2nccc3[nH]c(-c4ccsc4)cc23)cc1 [Compound 261, methyl 4-[[2-(3-thienyl)-1H-pyrrolo[3,2-c]pyridin-4-yl]amino]benzoate]	0 to 30
COc1cc(Nc2nccc3[nH]c(-c4ccncc4)nc23)cc(OC)c1OC [Compound 421, 2-(4-pyridyl)-N-(3,4,5-trimethoxyphenyl)-1H-imidazo[4,5-c]pyridin-4-amine]	50 to 100
COc1cccc(-c2nc3c(Nc4ccc(F)c(Cl)c4)nccc3[nH]2)c1F [Compound 474, N-(3-chloro-4-fluoro-phenyl)-2-(2-fluoro-3-methoxy-phenyl)-1H-imidazo[4,5-c]pyridin-4-amine]	30 to 50
COc1ccc(Nc2cc3c(cn2)cc(-c2ccc(C(=O)N(C)C)cc2)n3C)cc1OC [Compound 46, 4-[6-(3,4-dimethoxyanilino)-1-methyl-pyrrolo[3,2-c]pyridin-2-yl]-N,N-dimethyl-benzamide]	50 to 100
COc1ccc(-c2cc3c(cn2)nc(NCc2cccc(C)c2)n3C)cc1OC [Compound 579, 6-(3,4-dimethoxyphenyl)-1-methyl-N-(m-tolylmethyl)imidazo[4,5-c]pyridin-2-amine]	30 to 50
COc1ccc(Nc2nccc3[nH]c(-c4cccc(C)c4)nc23)cc1OC [Compound 436, N-(3,4-dimethoxyphenyl)-2-(m-tolyl)-1H-imidazo[4,5-c]pyridin-4-amine]	50 to 100
COc1ccc(Nc2cc3[nH]c(-c4cnn(C)c4)cc3cn2)cc1OC [Compound 123, N-(3,4-dimethoxyphenyl)-2-(1-methylpyrazol-4-yl)-1H-pyrrolo[3,2-c]pyridin-6-amine]	> 100
CN(C)c1cccc(Nc2nccc3c2cc(-c2ccsc2)n3C)c1 [Compound 277, N1,N1-dimethyl-N3-[1-methyl-2-(3-thienyl)pyrrolo[3,2-c]pyridin-4-yl]benzene-1,3-diamine]	30 to 50
COc1ccc(Nc2cc3c(cn2)cc(-c2cccc(N(C)C(C)=O)c2)n3C)cn1 [Compound 161, N-[3-[6-[(6-methoxy-3-pyridyl)amino]-1-methyl-pyrrolo[3,2-c]pyridin-2-yl]phenyl]-N-methyl-acetamide]	50 to 100
Cn1c(-c2ccc3ccccc3n2)nc2cnccc21 [Compound 778, 2-(1-methylimidazo[4,5-c]pyridin-2-yl)quinoline]	0 to 30
COc1ccc(-c2cc3c(cn2)nc(NCc2cccnc2)n3C)cc1OC [Compound 862, 6-(3,4-dimethoxyphenyl)-1-methyl-N-(3-pyridylmethyl)imidazo[4,5-c]pyridin-2-amine]	0 to 30
CN(C)C(=O)c1ccc(-c2cc3cnc(Nc4cccc(S(C)(=O)=O)c4)cc3[nH]2)cc1 [Compound 30, N,N-dimethyl-4-[6-(3-methylsulfonylanilino)-1H-pyrrolo[3,2-c]pyridin-2-yl]benzamide]	50 to 100
CN(c1ccccc1)c1cc2c(cn1)cc(-c1cnn(C)c1)n2C [Compound 140, N,1-dimethyl-2-(1-methylpyrazol-4-yl)-N-phenyl-pyrrolo[3,2-c]pyridin-6-amine]	30 to 50
Cc1cccc(Nc2cc3c(cn2)cc(-c2cnn(C)c2)n3C)c1 [Compound 136, 1-methyl-2-(1-methylpyrazol-4-yl)-N-(m-tolyl)pyrrolo[3,2-c]pyridin-6-amine]	50 to 100

SMILES	Emax [%]
c1ccc(-c2cc3cnc(Nc4ccncc4)cc3[nH]2)cc1 [Compound 178, 2-phenyl-N-(4-pyridyl)-1H-pyrrolo[3,2-c]pyridin-6-amine]	30 to 50
CNc1nc2cnc(Nc3ccc(OC)c(O)c3)cc2n1Cc1ccccc1 [Compound 536, 5-[[1-benzyl-2-(methylamino)imidazo[4,5-c]pyridin-6-yl]amino]-2-methoxy-phenol]	50 to 100
COc1cccc(-c2nc3c(Nc4ccc(Cl)cc4)nccc3[nH]2)c1F [Compound 471, N-(4-chlorophenyl)-2-(2-fluoro-3-methoxy-phenyl)-1H-imidazo[4,5-c]pyridin-4-amine]	0 to 30
CN(C)C(=O)c1ccc(-c2cc3cnc(Nc4cccc(Cl)c4)cc3[nH]2)cc1 [Compound 23, 4-[6-(3-chloroanilino)-1H-pyrrolo[3,2-c]pyridin-2-yl]-N,N-dimethyl-benzamide]	30 to 50
COc1ccc(Nc2cc3c(cn2)cc(-c2cccnc2)n3C)cc1OC [Compound 85, N-(3,4-dimethoxyphenyl)-1-methyl-2-(3-pyridyl)pyrrolo[3,2-c]pyridin-6-amine]	50 to 100
CN(C)C(=O)c1ccc(-c2cc3c(N4CCOCC4)nccc3n2C)cc1 [Compound 188, N,N-dimethyl-4-(1-methyl-4-morpholino-pyrrolo[3,2-c]pyridin-2-yl)benzamide]	0 to 30
COc1cccc(-c2cc3c(Nc4ccc(OC)c(O)c4)nccc3[nH]2)c1 [Compound 312, 2-methoxy-5-[[2-(3-methoxyphenyl)-1H-pyrrolo[3,2-c]pyridin-4-yl]amino]phenol]	50 to 100
CNc1nc2cnc(Nc3cc(OC)cc(C(F)(F)F)c3)cc2n1Cc1ccco1 [Compound 767, 1-(2-furylmethyl)-N6-[3-methoxy-5-(trifluoromethyl)phenyl]-N2-methyl-imidazo[4,5-c]pyridine-2,6-diamine]	0 to 30
CNc1nc2cnc(-c3cccc(C(=O)NCCN(C)C)c3)cc2n1-c1cccc(F)c1 [Compound 771, N-(2-dimethylaminoethyl)-3-[1-(3-fluorophenyl)-2-(methylamino)imidazo[4,5-c]pyridin-6-yl]benzamide]	0 to 30
COc1ccc(Nc2nccc3c2cc(-c2ccccc2)n3C)cc1OC [Compound 326, N-(3,4-dimethoxyphenyl)-1-methyl-2-phenyl-pyrrolo[3,2-c]pyridin-4-amine]	30 to 50
CS(=O)(=O)c1cccc(Nc2nccc3[nH]c(-c4ccc5c(c4)OCCO5)nc23)c1 [Compound 417, 2-(2,3-dihydro-1,4-benzodioxin-6-yl)-N-(3-methylsulfonylphenyl)-1H-imidazo[4,5-c]pyridin-4-amine]	30 to 50
Cn1c(-c2cccc(Cl)c2)cc2c(Nc3ccncn3)nccc21 [Compound 316, 2-(3-chlorophenyl)-1-methyl-N-pyrimidin-4-yl-pyrrolo[3,2-c]pyridin-4-amine]	30 to 50
Oc1cccc(-c2nc3c(N4CCOCC4)nccc3[nH]2)c1 [Compound 363, 3-(4-morpholino-1H-imidazo[4,5-c]pyridin-2-yl)phenol]	30 to 50
c1cc2[nH]c(-c3ccsc3)cc2c(N2CCOCC2)n1 [Compound 191, 4-[2-(3-thienyl)-1H-pyrrolo[3,2-c]pyridin-4-yl]morpholine]	50 to 100
Sc1nc2cnccc2n1-c1ccccc1 [Compound 741, 1-phenylimidazo[4,5-c]pyridine-2-thiol]	50 to 100
CNc1nc2cnc(Nc3ccc4c(c3)OCCO4)cc2n1-c1cccc(C(F)(F)F)c1 [Compound 544, N6-(2,3-dihydro-1,4-benzodioxin-6-yl)-N2-methyl-1-[3-(trifluoromethyl)phenyl]imidazo[4,5-c]pyridine-2,6-diamine]	50 to 100
CNc1nc2cnc(Nc3cccc(OC)c3)cc2n1Cc1ccc(OC)c(OC)c1 [Compound 662, 1-[(3,4-dimethoxyphenyl)methyl]-N6-(3-methoxyphenyl)-N2-methyl-imidazo[4,5-c]pyridine-2,6-diamine]	50 to 100
CN(C)c1cccc(Nc2nccc3[nH]c(-c4ccncc4)nc23)c1 [Compound 426, N1,N1-dimethyl-N3-[2-(4-pyridyl)-1H-imidazo[4,5-c]pyridin-4-yl]benzene-1,3-diamine]	50 to 100
CC(C)CNc1nccc2[nH]c(-c3ccc4c(c3)OCCO4)nc12 [Compound 413, 2-(2,3-dihydro-1,4-benzodioxin-6-yl)-N-isobutyl-1H-imidazo[4,5-c]pyridin-4-amine]	30 to 50
FC(F)(F)Oc1cccc(Nc2cc3[nH]c(-c4ccccn4)cc3cn2)c1 [Compound 69, 2-(2-pyridyl)-N-[3-(trifluoromethoxy)phenyl]-1H-pyrrolo[3,2-c]pyridin-6-amine]	30 to 50
COCc1nc2cnc(Nc3cc(OC)c(OC)c(OC)c3)cc2n1C [Compound 745, 2-(methoxymethyl)-1-methyl-N-(3,4,5-trimethoxyphenyl)imidazo[4,5-c]pyridin-6-amine]	30 to 50
